Test results as given in BigSolDB 2.1.

O=C1CCC(=O)O1
solubility (mole fraction) (in THF, 283.15 K): 0.071 | solubility (mole fraction) (in THF, 288.15 K): 0.077 | solubility (mole fraction) (in THF, 293.15 K): 0.085 | solubility (mole fraction) (in THF, 298.15 K): 0.093 | solubility (mole fraction) (in THF, 303.15 K): 0.104 | solubility (mole fraction) (in THF, 308.15 K): 0.115 | solubility (mole fraction) (in THF, 313.15 K): 0.129 | solubility (mole fraction) (in THF, 318.15 K): 0.145 | solubility (mole fraction) (in THF, 323.15 K): 0.164 | solubility (mole fraction) (in gamma-butyrolactone, 283.15 K): 0.197 | solubility (mole fraction) (in gamma-butyrolactone, 288.15 K): 0.218 | solubility (mole fraction) (in gamma-butyrolactone, 293.15 K): 0.239 | solubility (mole fraction) (in gamma-butyrolactone, 298.15 K): 0.261 | solubility (mole fraction) (in gamma-butyrolactone, 303.15 K): 0.283 | solubility (mole fraction) (in gamma-butyrolactone, 308.15 K): 0.307 | solubility (mole fraction) (in gamma-butyrolactone, 313.15 K): 0.331 | solubility (mole fraction) (in gamma-butyrolactone, 318.15 K): 0.354 | solubility (mole fraction) (in gamma-butyrolactone, 323.15 K): 0.378
